Assay results from ChEMBL document CHEMBL3044612, “Design, synthesis and biological evaluation of some novel 3-cinnamoyl-4-hydroxy-2H-chromen-2-ones as antimalarial agents” (Med Chem Res, 2012).
pIC50: −log10 of the molar value. Converted amounts (≈) assume the structure as drawn.

Experiments:
[1] = system: K562; experiment: Cytotoxicity against Homo sapiens (human) K562 cells by Sulphorhodamine B assay; type: cell-based
[2] = Selectivity index, ratio of IC50 for human K562 cells to IC50 for chloroquine-sensitive Plasmodium falciparum 3D7; type: toxicity, cell-based; conditions: read-out: Ratio IC50
[3] = Selectivity index, ratio of IC50 for human K562 cells to IC50 for chloroquine-resistant Plasmodium falciparum W2; type: toxicity, cell-based; conditions: read-out: Ratio IC50
[4] = system: Plasmodium falciparum; experiment: Antimalarial activity against chloroquine-resistant Plasmodium falciparum W2 by in vitro cell culture method; type: functional, organism-based
[5] = system: Plasmodium falciparum; experiment: Antimalarial activity against chloroquine-sensitive Plasmodium falciparum 3D7 by in vitro cell culture method; type: functional, organism-based
[6] = Selectivity index, ratio of IC50 for human K562 cells to IC80 for chloroquine-sensitive Plasmodium falciparum 3D7; type: toxicity, cell-based; conditions: read-out: Selectivity Index
[7] = system: Plasmodium falciparum; experiment: Antimalarial activity against Plasmodium falciparum by [3H]-hypoxanthine incorporation assay; type: functional, organism-based

Row | pIC50 [7] | SMILES | IC50 [1] [µg/mL] | selectivity ratio [2] | selectivity ratio [3] | IC50 [4] [µg/mL] | IC50 [5] [µg/mL] | IC80 [5] [µg/mL] | selectivity ratio [6]
1 |  | O=C(/C=C/c1ccc([N+](=O)[O-])cc1)c1c(O)c2ccccc2oc1=O | 154 (≈ 457 µM) | 49.7 | 38.5 | 4 (≈ 11.9 µM) | 3.1 (≈ 9.19 µM) | 7 (≈ 20.8 µM) | 22
2 |  | COc1cc(/C=C/C(=O)c2c(O)c3ccccc3oc2=O)cc(OC)c1OC | 103 (≈ 270 µM) |  |  |  | > 50 |  | 
3 |  | CN(C)c1ccc(/C=C/C(=O)c2c(O)c3ccccc3oc2=O)cc1 | 156 (≈ 467 µM) | 9.1 | 2.29 | 68.2 (≈ 203 µM) | 17.2 (≈ 51.3 µM) | 22.1 (≈ 65.9 µM) | 7.08
4 |  | O=C(/C=C/c1ccccc1)c1c(O)c2ccccc2oc1=O | 99.2 (≈ 339 µM) | 4.49 | 9.02 | 11 (≈ 37.6 µM) | 22.1 (≈ 75.6 µM) | 56.3 (≈ 193 µM) | 1.76
5 |  | COc1ccc(/C=C/C(=O)c2c(O)c3ccccc3oc2=O)cc1 |  |  |  | 35.8 (≈ 111 µM) | 7.2 (≈ 22.3 µM) | 6.2 (≈ 19.2 µM) | 
6 |  | Cc1ccc(/C=C/C(=O)c2c(O)c3ccccc3oc2=O)cc1 |  |  |  | 5.1 (≈ 16.6 µM) | 6.1 (≈ 19.9 µM) | 15 (≈ 49 µM) | 
7 |  | COc1ccc(/C=C/C(=O)c2c(O)c3ccccc3oc2=O)cc1OC | 71.4 (≈ 203 µM) | 11.5 | 3.25 | 22 (≈ 62.4 µM) | 6.2 (≈ 17.6 µM) | 15.1 (≈ 42.9 µM) | 4.73
8 |  | COc1ccc(/C=C/C(=O)c2c(O)c3ccccc3oc2=O)c(OC)c1OC | 46.6 (≈ 122 µM) | 5.48 | 0.83 | 56.1 (≈ 147 µM) | 8.5 (≈ 22.2 µM) | 20.3 (≈ 53.1 µM) | 2.3
9 |  | O=C(/C=C/c1ccco1)c1c(O)c2ccccc2oc1=O |  |  |  |  | > 50 |  | 
10 |  | O=C(/C=C/c1ccccc1Cl)c1c(O)c2ccccc2oc1=O | 124 (≈ 378 µM) |  |  |  | > 50 |  | 
11 |  | O=C(/C=C/c1cccc(Cl)c1)c1c(O)c2ccccc2oc1=O |  |  |  | 6.2 (≈ 19 µM) | 4.2 (≈ 12.9 µM) | 9 (≈ 27.5 µM) | 
12 |  | O=C(/C=C/c1ccc(Cl)cc1)c1c(O)c2ccccc2oc1=O | 32.1 (≈ 98.2 µM) | 6.29 | 4.94 | 6.5 (≈ 19.9 µM) | 5.1 (≈ 15.6 µM) | 14.2 (≈ 43.5 µM) | 2.26
13 |  | O=C(/C=C/c1ccc(Cl)cc1Cl)c1c(O)c2ccccc2oc1=O | 149 (≈ 413 µM) |  |  |  | > 50 |  | 
14 |  | O=C(/C=C/c1cccc([N+](=O)[O-])c1)c1c(O)c2ccccc2oc1=O | 152 (≈ 450 µM) | 9.72 | 2.8 | 54.1 (≈ 160 µM) | 15.6 (≈ 46.3 µM) | 25.2 (≈ 74.7 µM) | 6.02
15 |  | COc1cc(/C=C/C(=O)c2c(O)c3ccccc3oc2=O)ccc1O |  |  |  | 61.3 (≈ 181 µM) | 11.2 (≈ 33.1 µM) | 27.2 (≈ 80.4 µM) | 
16 |  | CCN(CC)CCCC(C)Nc1ccnc2cc(Cl)ccc12 (stereo unspecified) [CHLOROQUINE] | 43.8 (≈ 137 µM) |  |  |  |  | 0.0401 (≈ 0.125 µM) | 
17 | 4.60 | O=c1ccc2ccc(O)c(O)c2o1 [DAPHNETIN] |  |  |  |  |  |  | 
